These results are taken from article PMC12323867 (RSC Medicinal Chemistry, 2025).

Structures are written as SMILES. Read-outs that look alike come from different tables or passages of the source.

The subject of assay [1] is LSD1. The following applies: cited from earlier work.
In assay [2] the test system is LSD1. Details: method as in PMID 38742921. The conditions noted are these: cited from earlier work.
The target of assay [3] is T1, LSD1-HDAC1-CoREST complex (Homo sapiens, UniProt O60341).
T1 construct: full length native LSD1 (UniProt ID: O60341); made in house; host or cells: HEK 293F cells (co-transfection, pcDNA3 vectors)
Briefly: LSD1 HRP-coupled demethylase assay, SP2509/SP2577 analogues. Format: biochemical. The following applies: LSD1 enzymatic activity, complex 50 nM, HRP assay; read-out: LSD1-HDAC1-CoREST IC50. How it is done:
The analogues synthesised were then tested for their ability to inhibit LSD1 using purified LSD1-HDAC1-CoREST complex (Fig. 2B). We used an established fluorescent read out horseradish peroxidase (HRP) assay to monitor LSD1 enzymatic activity in the CoREST complex[8] (see ESI ^† for full details).
2. Supplementary Information: Biology
2.1. LSD-HDAC1-CoREST expression and purification
Lysis Buffer (Buffer A) Wash Buffer (Buffer B)
• 50 mM Tris/Cl pH 7.5 • 50 mM Tris/Cl pH 7.5
• 50 mM Potassium Acetate • 50 mM Potassium Acetate […]
Cleavage Buffer (Buffer C) Gel Filtration Buffer (Buffer D)
• 50 mM Tris/Cl pH 7.5 Filtered at vacuum.
• 50 mM Potassium Acetate • 50 mM Tris/Cl pH 7.5
• 5 % v/v Glycerol • 50 mM Potassium Acetate
• 0.5 mM tris(2- • 0.5 mM TCEP carboxyethyl)phosphine (TCEP)
The CoREST ternary complex was comprised of full length native LSD1 (UniProt ID: O60341), full length HDAC1 (UniProt ID: Q13547) and N-terminally truncated RCOR1 (86-485aa) (UniProt ID:
Q9UKL0). Protein constructs were cloned into pcDNA3 vector. The RCOR1 constructs contained an N-terminal (His)10(Flag)3 tag followed by a Tev protease cleavage site. The constructs for ternary complex were co-transfected into suspension-grow HEK 293F cells (Thermofisher Scientific) with polyethylenimine (PEI) (Sigma) and harvested after 48 hours. This section of the procedure was carried out as described previously in literature.11,12
Cell pellets from 1.2 L culture were defrosted, and buffer A (30 mL) was added. The solution was sonicated (Soniprep 150) in an beaker of ice using a 9 mm probe at 10 ampules; operated with 10 […]
2.2. SP2509/SP2577 analogues LSD1 HRP-coupled demethylase assay protocol The commercial reagents for the assay were HRP and Amplex® Ultrared, which are available to purchase from ThermoFisher (31490) and Invitrogen (10737474), respectively. HRP was made up to 8 mg/mL stock solution in 1xPBS buffer, divided into 10 µL aliquots, snap-frozen in liquid nitrogen and stored at -80 °C. Amplex® Ultrared was made up to 10 mM solution in DMSO, divided into 20 µL aliquots and wrapped in foil, away from light and stored at -20 °C. For each assay experiment, CoREST complex was diluted to 500 nM in assay buffer (20 mM HEPES pH 7.5 and 50 mM NaCl).
HRP was defrosted by diluting each aliquot in 90 µL 1xPBS solution, making a 0.8 mg/mL solution.
Amplex® Ultrared was made up to 200 µM in assay buffer. HRP and Amplex® Ultrared were pre-mixed before addition to the plate. H3K4Me2 substrate (4 mM in deionised water) was diluted to 300 µM in assay buffer. All stocks were stored on ice during assay preparation.
The assay was carried out using a ‘black well’ 96 well plate (Corning no. 3915) in a reaction volume of 100 μL. The final concentrations in the assay were as follows: 50 nM CoREST complex, 10 μM Amplex® UltraRed, 0.04 mg/mL HRP and 15 μM H3K4Me2 peptide substrate. The final DMSO concentration in each well was 1.1 %. Three wells of each experiments were designated ‘background controls’ and contained 85 μL assay buffer, premixed Amplex® UltraRed and HRP (10 µL) and H3K4Me peptide substrate (300 μM, 5 µL).
A stock solution of inhibitor (1 -5 mM in DMSO) was subjected to an inhibitor dilution series, in Eppendorf tubes, in 100 % DMSO. Each new inhibitor stock (4 μL) was diluted in assay buffer (1 in 75) within a new Eppendorf set with assay buffer (20 mM HEPES pH 7.5 and 50 m M NaCl), ensuring the percentage of DMSO was consistent throughout the series. To each well of interest, Inhibitor in assay buffer (75 μL) was added, and CoREST complex (500 nM, 10 µL) was added thereafter. The plate was placed on a rocker and pre -incubated for 30 mins. To each well, premixed Amplex® UltraRed and HRP (10 µL) was added before H3K4Me 2 peptide substrate in assay buffer solution (300 μM, 5 µL) was added to the wall of the plate. The plate was covered in foil and spun down for one minute before being placed in the plate reader. The final percentage concentration of DMSO in […]

The test system of a further assay is H3K4me2 levels in cells. On the set-up: method as in PMID 38742921. The following applies: cited from earlier work.

As for `C/C(=N\NC(=O)c1cccc(S(=O)(=O)N2CCN(C)CC2)c1)c1cc(Cl)ccc1O` [SP2577], the figures for the concentration for half-maximal inhibition (IC50) (in the assay on LSD1 [1] (read-out: LSD1 IC50); in the assay on LSD1 [1] (read-out: LSD1 mean IC50); in assay [3]) were 1330 nM, 127 nM and 306 nM, respectively. Also, in the assay on LSD1 [2], the “ability to increase H3K4me2 on peptides and nucleosomes” value is reported as “no effect”. Further, in the assay on H3K4me2 levels in cells, the “H3K4me2 levels in cells” value is reported as “failed to increase H3K4me2 levels”.
